The text below walks through data of patent publication US11098044B2, “Imidazopyridinyl compounds and use thereof for treatment of neurodegenerative disorders” (1ST Biotherapeutics, Inc., priority 2019, dated 2021).

Common to all, as to assay type: biochemical
The target of test [1] is c-Abl (His-tagged recombinant human ABL1) (Homo sapiens (Human), UniProt P00519). Put plainly: c-abl Kinase Assay (ADP-Glo). The note with it: ATP (25 μM), Abltide substrate. In a few lines:
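His-tagged human ABL1 (0.25 ng/μl), Abltide (0.01 μg/μl) and ATP (25 μM), each at its added concentration, reacted with compound (0.5% DMSO) for 30 min at 30 °C. Buffer was 50 mM HEPES pH 7.5, 10 mM MgCl2, 1 mM EGTA, 0.05% BSA, 0.01% Triton X-100, 2 mM DTT. ADP formed was read by ADP-Glo luminescence, and IC50 was fitted from percent inhibition across concentrations.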

In another test the target is LRRK2 G2019S (Homo sapiens (Human), UniProt Q5S007, G2019S). In words: LRRK2 G2019S Kinase Assay (Adapta). The note with it: 100 μM ATP, LRRKtide substrate; read-out: LRRK2_G2019S IC50. A digest of the protocol:
(§1)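 Adapta TR-FRET kinase assay with LRRKtide substrate in 50 mM Tris pH 8.5, 0.01% BRIJ-35, 10 mM MgCl2, 1 mM EGTA, 0.02% NaN3. ATP at Km: 70 μM for WT LRRK2, 100 μM for G2019S. Reaction 1 h at room temperature; after 60 min with detection mix, 665/615 nm emission ratio read.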

For a further test, the target named is LRRK2 (WT) (Homo sapiens (Human), UniProt Q5S007). In words: LRRK2 Kinase Assay (Adapta). The note with it: 70 μM ATP, LRRKtide substrate. A digest of the protocol: as §1
Sequence of LRRK2 (WT) (Q5S007 whole entry): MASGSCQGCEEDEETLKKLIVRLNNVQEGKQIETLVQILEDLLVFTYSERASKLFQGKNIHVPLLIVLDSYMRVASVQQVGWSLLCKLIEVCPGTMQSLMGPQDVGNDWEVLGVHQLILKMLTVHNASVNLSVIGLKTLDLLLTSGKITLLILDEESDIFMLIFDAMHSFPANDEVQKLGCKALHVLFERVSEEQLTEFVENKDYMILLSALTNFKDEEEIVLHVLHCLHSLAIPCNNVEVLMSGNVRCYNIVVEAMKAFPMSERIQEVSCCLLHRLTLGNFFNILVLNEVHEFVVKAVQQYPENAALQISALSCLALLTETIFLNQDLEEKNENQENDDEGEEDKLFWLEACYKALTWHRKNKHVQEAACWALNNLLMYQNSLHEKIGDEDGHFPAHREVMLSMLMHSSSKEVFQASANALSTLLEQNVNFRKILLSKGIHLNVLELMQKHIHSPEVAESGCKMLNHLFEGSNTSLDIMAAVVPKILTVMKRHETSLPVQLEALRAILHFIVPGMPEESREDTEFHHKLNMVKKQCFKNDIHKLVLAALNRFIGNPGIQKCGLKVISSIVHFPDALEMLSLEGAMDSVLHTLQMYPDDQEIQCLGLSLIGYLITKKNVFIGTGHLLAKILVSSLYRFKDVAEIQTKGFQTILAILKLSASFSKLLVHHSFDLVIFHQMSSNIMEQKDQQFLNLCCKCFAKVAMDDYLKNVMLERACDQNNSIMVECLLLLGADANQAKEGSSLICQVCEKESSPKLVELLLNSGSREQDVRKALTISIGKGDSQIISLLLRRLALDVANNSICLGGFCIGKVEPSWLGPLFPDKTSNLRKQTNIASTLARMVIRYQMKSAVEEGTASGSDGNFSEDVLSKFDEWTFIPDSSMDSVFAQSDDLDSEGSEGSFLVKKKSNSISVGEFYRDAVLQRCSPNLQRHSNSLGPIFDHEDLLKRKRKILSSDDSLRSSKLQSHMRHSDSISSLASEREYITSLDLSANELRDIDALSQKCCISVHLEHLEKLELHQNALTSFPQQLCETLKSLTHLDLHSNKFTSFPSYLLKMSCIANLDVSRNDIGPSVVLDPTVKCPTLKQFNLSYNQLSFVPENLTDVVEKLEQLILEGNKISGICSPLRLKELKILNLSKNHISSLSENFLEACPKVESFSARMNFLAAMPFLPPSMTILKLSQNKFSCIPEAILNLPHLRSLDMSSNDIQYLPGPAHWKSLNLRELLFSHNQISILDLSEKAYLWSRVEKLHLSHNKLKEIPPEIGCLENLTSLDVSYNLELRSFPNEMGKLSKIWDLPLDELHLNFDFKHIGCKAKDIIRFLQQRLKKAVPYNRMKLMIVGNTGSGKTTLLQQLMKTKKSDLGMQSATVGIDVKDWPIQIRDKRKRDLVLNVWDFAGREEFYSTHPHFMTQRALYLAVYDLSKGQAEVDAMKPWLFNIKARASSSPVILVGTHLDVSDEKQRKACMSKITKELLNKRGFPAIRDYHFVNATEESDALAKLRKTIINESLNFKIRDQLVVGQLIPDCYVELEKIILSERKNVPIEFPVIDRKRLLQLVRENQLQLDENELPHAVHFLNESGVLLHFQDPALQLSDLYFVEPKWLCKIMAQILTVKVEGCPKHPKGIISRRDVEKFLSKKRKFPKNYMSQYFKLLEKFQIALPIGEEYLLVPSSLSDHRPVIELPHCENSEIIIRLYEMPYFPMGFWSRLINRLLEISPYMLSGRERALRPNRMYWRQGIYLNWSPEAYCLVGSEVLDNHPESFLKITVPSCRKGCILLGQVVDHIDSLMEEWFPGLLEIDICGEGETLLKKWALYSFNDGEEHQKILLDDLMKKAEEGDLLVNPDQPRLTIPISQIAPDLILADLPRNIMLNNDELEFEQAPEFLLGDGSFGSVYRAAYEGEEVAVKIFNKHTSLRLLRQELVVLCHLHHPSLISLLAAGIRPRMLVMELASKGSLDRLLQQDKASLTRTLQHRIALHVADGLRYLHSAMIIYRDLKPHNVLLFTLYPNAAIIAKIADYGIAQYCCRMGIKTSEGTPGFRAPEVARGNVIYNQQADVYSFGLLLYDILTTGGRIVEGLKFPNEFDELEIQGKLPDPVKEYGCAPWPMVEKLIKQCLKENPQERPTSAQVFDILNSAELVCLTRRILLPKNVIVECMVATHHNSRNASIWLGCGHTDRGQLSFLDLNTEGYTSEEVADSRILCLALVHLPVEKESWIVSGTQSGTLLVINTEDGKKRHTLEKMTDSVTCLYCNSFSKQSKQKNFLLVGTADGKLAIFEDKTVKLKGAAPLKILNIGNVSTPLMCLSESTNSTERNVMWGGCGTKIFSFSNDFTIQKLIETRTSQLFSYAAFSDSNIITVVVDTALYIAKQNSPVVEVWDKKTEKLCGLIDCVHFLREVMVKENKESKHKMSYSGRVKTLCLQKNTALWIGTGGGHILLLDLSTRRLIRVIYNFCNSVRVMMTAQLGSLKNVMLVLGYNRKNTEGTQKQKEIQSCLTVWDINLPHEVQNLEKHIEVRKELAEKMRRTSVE

Sequence of LRRK2 G2019S (Q5S007 whole entry G2019S): as the sequence (Q5S007 whole entry) above, with G2019S counted along it
Sequence of c-Abl (His-tagged recombinant human ABL1) (P00519 whole entry): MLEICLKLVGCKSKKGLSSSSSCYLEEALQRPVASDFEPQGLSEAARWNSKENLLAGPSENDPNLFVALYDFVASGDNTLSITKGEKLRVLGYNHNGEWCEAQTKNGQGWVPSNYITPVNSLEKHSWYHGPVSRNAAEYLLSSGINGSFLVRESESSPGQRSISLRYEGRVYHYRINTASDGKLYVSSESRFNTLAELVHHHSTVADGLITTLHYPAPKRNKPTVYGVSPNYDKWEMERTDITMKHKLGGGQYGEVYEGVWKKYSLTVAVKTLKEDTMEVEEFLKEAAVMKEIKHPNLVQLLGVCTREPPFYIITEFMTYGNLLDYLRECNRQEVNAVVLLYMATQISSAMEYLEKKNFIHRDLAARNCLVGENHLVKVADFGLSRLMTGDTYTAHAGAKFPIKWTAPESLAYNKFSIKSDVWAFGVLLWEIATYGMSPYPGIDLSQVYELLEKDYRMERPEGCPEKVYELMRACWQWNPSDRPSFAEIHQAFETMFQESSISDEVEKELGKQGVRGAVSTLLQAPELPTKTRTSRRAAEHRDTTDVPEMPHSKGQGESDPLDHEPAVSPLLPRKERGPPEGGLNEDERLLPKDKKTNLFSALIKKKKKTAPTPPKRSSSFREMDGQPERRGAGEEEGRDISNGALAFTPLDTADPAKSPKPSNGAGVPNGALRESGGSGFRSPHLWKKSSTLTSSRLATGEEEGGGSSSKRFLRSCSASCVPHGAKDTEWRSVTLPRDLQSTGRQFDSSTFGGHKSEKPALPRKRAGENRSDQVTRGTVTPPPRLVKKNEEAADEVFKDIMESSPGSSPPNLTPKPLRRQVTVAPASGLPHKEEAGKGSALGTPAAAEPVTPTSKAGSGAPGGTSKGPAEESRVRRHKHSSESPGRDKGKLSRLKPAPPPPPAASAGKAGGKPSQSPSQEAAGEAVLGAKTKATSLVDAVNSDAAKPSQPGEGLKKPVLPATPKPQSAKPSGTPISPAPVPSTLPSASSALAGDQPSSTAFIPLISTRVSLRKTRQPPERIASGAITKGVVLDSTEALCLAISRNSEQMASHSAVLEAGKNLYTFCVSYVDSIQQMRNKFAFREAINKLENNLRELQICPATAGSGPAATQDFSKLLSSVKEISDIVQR

Take `O=C(Nc1cn2cc(-c3cccc(F)c3F)ccc2n1)[C@@H]1C[C@@H]1F` [Example 62, (1S,2S)—N-(6-(2,3-difluorophenyl)imidazo[1,2-a]pyridin-2-yl)-2-fluorocyclopropanecarboxamide]: the IC50 is less than 10 nM in test [1], 10 to 100 nM at LRRK2 G2019S and 10 to 100 nM at LRRK2 (WT).
On to `Cc1c(F)cccc1-c1ccc2nc(NC(=O)[C@H]3C[C@H]3F)cn2c1` (stereo in doubt) [Example 73, 2-fluoro-N-(6-(3-fluoro-2-methylphenyl)imidazo[1,2-a]pyridin-2-yl)cyclopropanecarboxamide], for which the IC50 was less than 10 nM in test [1], 10 to 100 nM on LRRK2 G2019S and 101 to 1000 nM against LRRK2 (WT).
The matching figures for `Cc1ccc(O)cc1-c1ccc2nc(NC(=O)[C@@H]3C[C@@H]3F)cn2c1` [Example 12, (1S,2S)-2-fluoro-N-(6-(5-hydroxy-2-methylphenyl)imidazo[1,2-a]pyridin-2-yl)cyclopropane-1-carboxamide]: less than 10 nM, 10 to 100 nM and 10 to 100 nM.
As for `O=C(Nc1cn2cc(-c3cccc(F)c3CO)ccc2n1)[C@@H]1C[C@@H]1F` [Example 57, (1S,2S)-2-fluoro-N-(6-(3-fluoro-2-(hydroxymethyl)phenyl)imidazo[1,2-a]pyridin-2-yl)cyclopropane-1-carboxamide], the IC50 was less than 10 nM in test [1], greater than 1000 nM at LRRK2 G2019S and greater than 1000 nM against LRRK2 (WT).
Regarding `CC(=O)c1c(F)cccc1-c1ccc2nc(NC(=O)[C@@H]3C[C@@H]3F)cn2c1` [Example 68, (1S,2S)—N-(6-(2-acetyl-3-fluorophenyl)imidazo[1,2-a]pyridin-2-yl)-2-fluorocyclopropanecarboxamide], the 50% inhibitory concentration (IC50) in test [1] is 10 to 100 nM; on LRRK2 G2019S, greater than 1000 nM; on LRRK2 (WT), greater than 1000 nM.
As for `N#Cc1ccncc1-c1ccc2nc(NC(=O)[C@@H]3C[C@@H]3F)cn2c1` [Example 36, (1S,2S)—N-(6-(4-cyanopyridin-3-yl)imidazo[1,2-a]pyridin-2-yl)-2-fluorocyclopropane-1-carboxamide], the concentration for half-maximal inhibition (IC50) is 101 to 1000 nM in test [1], 101 to 1000 nM on LRRK2 G2019S and greater than 1000 nM on LRRK2 (WT).
As to `CN(C)Cc1c(F)cccc1-c1ccc2nc(NC(=O)[C@@H]3C[C@@H]3F)cn2c1` [Example 84, (1S,2S)—N-(6-(2-((dimethylamino)methyl)-3-fluorophenyl)imidazo[1,2-a]pyridin-2-yl)-2-fluorocyclopropanecarboxamide], the half-inhibitory concentration (IC50) (in test [1]; on LRRK2 G2019S; against LRRK2 (WT)) was greater than 1000 nM throughout.
As to `Cc1c(-c2ccc3nc(NC(=O)[C@@H]4C[C@@H]4F)cn3c2)ccc(Cl)c1F` [Example 46, (1S,2S)—N-(6-(4-chloro-3-fluoro-2-methylphenyl)imidazo[1,2-a]pyridin-2-yl)-2-fluorocyclopropane-1-carboxamide], the IC50 is less than 10 nM in test [1], 101 to 1000 nM on LRRK2 G2019S and 101 to 1000 nM against LRRK2 (WT).
Consider `COCc1c(F)cccc1-c1ccc2nc(NC(=O)[C@@H]3C[C@@H]3F)cn2c1` [Example 64, (1S,2S)-2-fluoro-N-(6-(3-fluoro-2-(methoxymethyl)phenyl)imidazo[1,2-a]pyridin-2-yl)cyclopropanecarboxamide], for which the figures for the half-inhibitory concentration (IC50) (in test [1]; on LRRK2 G2019S; against LRRK2 (WT)) were less than 10 nM, 101 to 1000 nM and greater than 1000 nM, respectively.
As for `CNCc1c(F)cccc1-c1ccc2nc(NC(=O)[C@@H]3C[C@@H]3F)cn2c1` [Example 80, (1S,2S)-2-fluoro-N-(6-(3-fluoro-2-((methylamino)methyl)phenyl)imidazo[1,2-a]pyridin-2-yl)cyclopropanecarboxamide], the IC50 (in test [1]; at LRRK2 G2019S; on LRRK2 (WT)) was greater than 1000 nM in each case.
In the case of `Cc1cc(N)ncc1-c1ccc2nc(NC(=O)[C@@H]3C[C@@H]3F)cn2c1` [Example 49, (1S,2S)—N-(6-(6-amino-4-methylpyridin-3-yl)imidazo[1,2-a]pyridin-2-yl)-2-fluorocyclopropane-1-carboxamide], the IC50 in test [1] was less than 10 nM; at LRRK2 G2019S it was greater than 1000 nM; at LRRK2 (WT), greater than 1000 nM.
With `Cc1ccc(-n2cccn2)cc1-c1ccc2nc(NC(=O)[C@@H]3C[C@@H]3F)cn2c1` [Example 56, (1S,2S)-2-fluoro-N-(6-(2-methyl-5-(1H-pyrazol-1-yl)phenyl)imidazo[1,2-a]pyridin-2-yl)cyclopropane-1-carboxamide], the results for the half-inhibitory concentration (IC50) (in test [1]; at LRRK2 G2019S; against LRRK2 (WT)) were less than 10 nM, 101 to 1000 nM and 101 to 1000 nM, respectively.
On to `CNc1ccc(C)c(-c2ccc3nc(NC(=O)[C@@H]4C[C@@H]4F)cn3c2)c1` [Example 24, (1S,2S)-2-fluoro-N-(6-(2-methyl-5-(methylamino)phenyl)imidazo[1,2-a]pyridin-2-yl)cyclopropane-1-carboxamide], for which the values for the IC50 (in test [1]; on LRRK2 G2019S; at LRRK2 (WT)) were less than 10 nM, 10 to 100 nM and 101 to 1000 nM, respectively.
